From patent US6906046B2 (Celltech R & D Inc., priority 2000, dated 2005)

Legend:
[1] = test system: NFκB; assay: NFκB luciferase reporter assay in TNF-α stimulated A549 cells (E-selectin promoter); type: cell-based; settings: Homo sapiens; A549 cells with NFκB luciferase reporter, TNF-α at its EC50, 5 hours; % inhibition or IC50 in μM; read-out: NFkB inh.
Experimental: A549 cells were stably transfected with an E-selectin promoter containing three NFκB binding sites driving luciferase expression. For the assay, 5×10^4 cells were incubated in 96 well round bottom plates overnight in 100 μL of 10% FBS/RPMI medium at 37° C. in a 5% CO2 atmosphere. The following morning the medium was removed and 90 μL of a 1% DMSO solution of test compound solution was added and the plates incubated for 1 hour. 10 μL of TNF-α was added at its EC50 (normally 6 ng/mL FAC) to each well and the plate incubated for 5 hours. 100 μL of luciferase buffer was added, and after 10 minutes luminescence was read on a Wallac Victor 1420 Multilabel Counter. The data obtained from the Wallac Victor was converted into % inhibition data or IC50 measured in μM.

[2] = test system: A549 cells; assay: Inhibition of TNF-α induced apoptosis in A549 cells (crystal violet); type: cell-based; settings: Homo sapiens; A549 cells, actinomycin-D + TNF-α at its EC50, 18 hours; percent inhibition at 20 μM or IC50 in μM; read-out: Apopt. Inh.
Experimental: The protocol used for determining inhibition of apoptosis in A549 cells was adopted from a system previously described (K. Last-Barney et al., J. of Immunology 141:527-530, 1988). Briefly, 10^5 cells in 200 μL 10% FBS/RPMI antibiotic containing culture medium were plated into 96 well round bottom culture plates and allowed to adhere for 6 hours at 37° C. in a 5% CO2 atmosphere. The media was removed and 100 μL of RPMI+1 μg/mL actinomycin-D was added to each well, followed by 90 μL of test compound solution in 1% DMSO. This was incubated for 1 hour 10 AL TNF-α was added at its EC50 (normally 1 ng/mL FAC) and the plates incubated for 18 hours. The media was aspirated from the plates and 100 μL of 0.5% crystal violet in 20% methanol was added. After 10 minutes the plates were rinsed with water to remove excess stain, air dried, and read on a Spectramax at a wavelength of 590 nm. The data obtained from the Spectramax was converted into percent inhibition data at a concentration of 20 μM or IC50 measured in μM.

[3] = target: T1, CXCR2 (Homo sapiens, UniProt P25025); assay: CXCR2 radioligand binding assay with 125I labeled IL-8; settings: human recombinant CHO cells, percent inhibition or IC50
T1 construct: host or cells: CHO cells
T1 sequence (P25025 1-360): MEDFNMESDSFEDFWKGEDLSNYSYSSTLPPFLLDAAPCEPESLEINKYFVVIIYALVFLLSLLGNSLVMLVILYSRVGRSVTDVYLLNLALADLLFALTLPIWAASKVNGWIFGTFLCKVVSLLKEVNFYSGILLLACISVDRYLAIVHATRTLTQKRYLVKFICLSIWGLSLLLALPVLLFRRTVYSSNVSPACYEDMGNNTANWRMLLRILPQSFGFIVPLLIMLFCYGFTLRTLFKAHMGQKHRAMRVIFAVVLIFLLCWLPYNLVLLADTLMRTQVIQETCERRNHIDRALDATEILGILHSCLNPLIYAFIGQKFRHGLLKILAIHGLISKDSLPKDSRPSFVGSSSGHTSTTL
Source text: (§1) This assay is a radioligand binding assay in human recombinant CHO cells with ^125I labeled IL-8 as the ligand. The assay procedure is described in Ahuja, S. K.; Murphy, P. M;.

[4] = target: T2, CXCR1 (Homo sapiens, UniProt P25024); assay: CXCR1 radioligand binding assay with 125I labeled IL-8; settings: human recombinant CHO cells, percent inhibition or IC50
T2 construct: host or cells: CHO cells
T2 sequence (P25024 1-350): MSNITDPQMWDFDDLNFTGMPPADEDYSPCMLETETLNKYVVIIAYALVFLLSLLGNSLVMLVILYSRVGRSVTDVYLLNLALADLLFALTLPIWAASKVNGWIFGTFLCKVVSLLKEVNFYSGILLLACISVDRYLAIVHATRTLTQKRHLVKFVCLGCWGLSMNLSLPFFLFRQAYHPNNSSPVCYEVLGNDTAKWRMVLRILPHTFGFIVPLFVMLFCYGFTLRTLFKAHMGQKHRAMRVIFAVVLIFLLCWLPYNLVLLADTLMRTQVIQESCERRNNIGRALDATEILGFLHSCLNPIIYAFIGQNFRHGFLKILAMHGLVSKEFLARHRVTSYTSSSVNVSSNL
Source text: as §1

SMILES: CCCOC(=O)C1C(C(=O)OCC[Si](C)(C)C)C2C/C(=N\Oc3ccccc3)[C@H]1c1cc(O)ccc12 (stereo partly shown) [Example 116]
- IC50 [1]: 10 to 50 µM
- IC50 [2]: < 10 µM
- CXCR2 2 inh. [3]: * (refers to percent inhibition from 10-36%)
- CXCR1 inh. [4]: * (refers to percent inhibition from 10-36%)
